Columns and labels:
MCT4 [1] = target: T1, MCT4 (Homo sapiens (Human), UniProt O15427); experiment: Lactate transport in MCT4-expressing MDA-MB-453 breast cancer cells (BCECF); format: cell-based; conditions: MDA-MB-453 cells stably expressing MCT4; 50 mM L-lactate
Procedure: Assay 1: Lactate Transport in MCT4-Expressing MDA-MB-453 Breast Cancer Cells. […] The following is an exemplary procedure for assaying MCT4 activity of the compounds of Formula (I). Preparing BCECF-Loaded Cells: […] The cells are pelleted (300 g, 5 min), washed once with 1 mL Tyrode's Solution, pH 7.4, re-pelleted (300 g, 5 min), and resuspended in 1 mL Tyrode's Solution, pH 7.4. Lactate Transport Assay: […] Fluorescence measurements are performed on a PerkinElmer LS55 fluorescence spectrometer with dual excitation wavelengths achieved using a filter wheel (FL Winlab program: Fast Filter; […] Emission 535). After establishing baseline BCECF fluorescence (around 10-20 s), 50 μL of 1 M sodium L-lactate (Sigma-Aldrich) is added to the cuvette (final concentration: 50 mM) and rapidly mixed.

MCT4 [2] = target: T1, MCT4; experiment: MCT4-mediated lactate transport in NCI-H358 lung adenocarcinoma cells; format: cell-based; conditions: native MCT4, 50 mM L-lactate
Procedure: Cells (˜7×10^6) are trypsinized (0.05% Trypsin-EDTA), pelleted (300 g, 5 min), and resuspended in 1 mL Tyrode's Solution, pH 7.4 (119 mM NaCl, 5 mM KCl, 25 mM HEPES, pH 7.4, 2 mM CaCl2, 2 mM MgCl2, 6 g/L glucose). 10 μL of a 30 mM DMSO stock of BCECF-AM ester (Life Technologies) is added and the cells are incubated at 37° C. for 5 min. The cells are pelleted (300 g, 5 min), washed once with 1 mL Tyrode's Solution, pH 7.4, re-pelleted (300 g, 5 min), and resuspended in 1 mL Tyrode's Solution, pH 7.4.
2.5 μL BCECF-loaded cells, along with either 10 μL DMSO or 100×compound in DMSO, are added to 937.5 μL of Tyrode's Solution in a quartz 1.0 mL cuvette (PerkinElmer, B0631116). Fluorescence measurements are performed on a PerkinElmer LS55 fluorescence spectrometer with dual excitation wavelengths achieved using a filter wheel (FL Winlab program: Fast Filter; Excitation 490/440; Emission 535). After establishing baseline BCECF fluorescence (around 10-20 s), 50 μL of 1 M sodium L-lactate (Sigma-Aldrich) is added to the cuvette (final concentration: 50 mM) and rapidly mixed. The time-dependent decrease in BCECF fluorescence (490/440 ratio) may be fit to an exponential decay curve (Prism GraphPad) to determine the rate of lactate transport.
Assay 2: MCT4-Mediated Lactate Transport in NCI-H358 Lung Adenocarcinoma Cells.
NCI-H358 lung adenocarcinoma cells may be used to measure MCT4 activity in cells with high native levels of MCT4 and low levels of MCT1 and are known to those with skill in the art. Preparation of BCECF-loaded cells and lactate transport activity may be determined as described for Assay 1.

MCT4 [3] = target: T1, MCT4; experiment: MCT4-mediated lactate transport in MDA-MB-231 breast cancer cells; format: cell-based; conditions: MDA-MB-231 cells, native MCT4; 50 mM L-lactate
Summary of the method: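 MDA-MB-231 cells loaded with BCECF-AM for 5 min at 37° C, then held in Tyrode's Solution, pH 7.4, with compound or 1% DMSO. After baseline, sodium L-lactate added to 50 mM final. Transport rate from exponential fit of the falling 490/440 BCECF ratio.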

MCT1 = MCT1 (Homo sapiens (Human), UniProt P53985); experiment: MCT1-mediated lactate transport in BT20 breast cancer cells; format: cell-based; conditions: native MCT1, 10 mM L-lactate
Sequence of MCT1 (P53985 whole entry): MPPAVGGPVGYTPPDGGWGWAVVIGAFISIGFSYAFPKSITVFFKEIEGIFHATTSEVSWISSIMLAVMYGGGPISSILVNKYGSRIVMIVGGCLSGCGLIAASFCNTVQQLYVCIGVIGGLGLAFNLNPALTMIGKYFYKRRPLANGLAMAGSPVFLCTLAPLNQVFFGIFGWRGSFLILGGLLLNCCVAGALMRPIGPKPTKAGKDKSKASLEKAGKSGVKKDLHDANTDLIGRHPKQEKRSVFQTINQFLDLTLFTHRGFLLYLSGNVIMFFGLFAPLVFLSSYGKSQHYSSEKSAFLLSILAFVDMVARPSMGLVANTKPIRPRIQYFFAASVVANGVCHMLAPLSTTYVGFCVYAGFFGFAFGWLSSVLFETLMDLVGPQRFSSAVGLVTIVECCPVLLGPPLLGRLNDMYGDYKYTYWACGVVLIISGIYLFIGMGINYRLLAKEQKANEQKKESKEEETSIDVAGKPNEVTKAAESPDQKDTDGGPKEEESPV
Sequence of MCT1 (P35613 140-385 partner): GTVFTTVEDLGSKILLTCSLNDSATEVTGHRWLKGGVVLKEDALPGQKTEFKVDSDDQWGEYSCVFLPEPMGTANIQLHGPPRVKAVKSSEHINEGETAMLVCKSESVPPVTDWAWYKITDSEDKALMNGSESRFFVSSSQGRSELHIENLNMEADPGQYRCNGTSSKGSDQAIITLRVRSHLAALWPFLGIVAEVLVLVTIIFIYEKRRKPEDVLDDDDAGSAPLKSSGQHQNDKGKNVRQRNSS
Summary of the method: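 BT20 cells loaded with BCECF-AM (5 min, 37 °C) were placed in Tyrode's Solution, pH 7.4, with compound or DMSO in a cuvette. After baseline, 10 mM L-lactate was added, and the transport rate came from an exponential fit to the fall in BCECF fluorescence (490/440 ratio).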

[4] = Metabolic stability in human liver microsomes; format: in vitro ADME; conditions: human liver microsomes 0.5 mg/mL, 2 μM compound; remaining percentage of parent at 60 min
Procedure: (§1) Metabolic Stability Assays The following are assays that may be used to evaluate the metabolic stability of compounds of Formula (I) in human or mouse microsomes. 1. […] Two separated experiments were performed as follows. a) With NADPH: 10 μL of 20 mg/mL liver microsomes and 40 μL of 10 mM NADPH were added to the incubations. […] The final concentration of microsomes was 0.5 mg/mL. 3. The reaction was started with the addition of 4 μL of 200 μM control compound or test compound solutions. Verapamil was used as positive control in this study. The final concentration of test compound or control compound was 2 μM. 4. Aliquots of 50 μL were taken from the reaction solution at 0, 15, 30, 45 and 60 min. […] Samples were centrifuged at 3, 220 g for 40 minutes. Aliquot of 90 μL of the supernatant was mixed with 90 μL of ultra-pure H2O and then used for LC-MS/MS analysis. 5. Data analysis. All calculations were carried out using Microsoft Excel. Peak areas were determined from extracted ion chromatograms. The slope value, k, was determined by linear regression of the natural logarithm of the remaining percentage of the parent drug vs. incubation time curve. The in vitro half-life (in vitro t½) was determined from the slope value: in vitro t1/2=−(0.693)/k.

[5] = Metabolic stability in mouse liver microsomes; format: in vitro ADME; conditions: mouse liver microsomes 0.5 mg/mL, 2 μM compound; remaining percentage of parent at 60 min
Procedure: as §1

T1 sequence (O15427 whole entry, looked up): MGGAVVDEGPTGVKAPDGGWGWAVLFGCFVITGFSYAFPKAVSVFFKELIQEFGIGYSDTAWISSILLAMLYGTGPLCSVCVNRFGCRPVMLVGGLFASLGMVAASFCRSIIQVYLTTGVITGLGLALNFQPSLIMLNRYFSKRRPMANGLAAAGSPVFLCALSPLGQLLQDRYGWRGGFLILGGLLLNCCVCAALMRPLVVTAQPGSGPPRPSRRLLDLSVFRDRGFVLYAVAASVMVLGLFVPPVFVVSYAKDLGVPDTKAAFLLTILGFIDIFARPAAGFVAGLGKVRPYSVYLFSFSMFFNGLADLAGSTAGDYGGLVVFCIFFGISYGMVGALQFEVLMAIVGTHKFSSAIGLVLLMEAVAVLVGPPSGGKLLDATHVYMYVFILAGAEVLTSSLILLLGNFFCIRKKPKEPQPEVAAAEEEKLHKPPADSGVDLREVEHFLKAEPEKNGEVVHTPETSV
T1 sequence (P35613 whole entry partner, looked up): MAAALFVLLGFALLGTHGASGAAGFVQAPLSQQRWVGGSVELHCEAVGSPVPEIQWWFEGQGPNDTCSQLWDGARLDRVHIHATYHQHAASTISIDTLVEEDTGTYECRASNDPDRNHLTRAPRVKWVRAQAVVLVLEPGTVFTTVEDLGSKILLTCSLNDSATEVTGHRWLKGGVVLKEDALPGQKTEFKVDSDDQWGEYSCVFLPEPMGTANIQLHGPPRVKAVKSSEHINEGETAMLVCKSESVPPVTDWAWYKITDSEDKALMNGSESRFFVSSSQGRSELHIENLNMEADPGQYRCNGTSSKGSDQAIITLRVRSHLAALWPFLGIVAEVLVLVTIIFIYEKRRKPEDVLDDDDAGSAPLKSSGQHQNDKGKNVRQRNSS

SMILES: COc1cccc(-c2cc(COC(C)(C)C(=O)O)nn2Cc2ccccc2Cl)c1 [Example 14, 2-[[1-[(2-Chlorophenyl)methyl]-5-(3-methoxyphenyl)pyrazol-3-yl]methoxy]-2-methyl-propanoic acid]
- IC50 (MCT4 [1]): 26 nM
- IC50 (MCT4 [2]): 44 nM
- IC50 (MCT4 [3]): 30 nM
- IC50 (MCT1; Table 2): > 100000 nM
- IC50 (MCT1; Table 3): > 100000 nM
- Human microsome % 60 min [4]: 82%
- Mouse microsome % 60 min [5]: 95%

SMILES: CC(C)COc1cccc(-c2cc(COC(C)(C)C(=O)O)nn2Cc2ccccc2Cl)c1 [Example 27, 2-[[1-[(2-Chlorophenyl)methyl]-5-(3-isobutoxyphenyl)pyrazol-3-yl]methoxy]-2-methyl-propanoic acid]
- IC50 (MCT4 [3]): 1 nM
- IC50 (MCT1; Table 3): 5600 nM
- Human microsome % 60 min [4]: 43%
- Mouse microsome % 60 min [5]: 50%

SMILES: COc1csc(-c2cc(COC(C)(C)C(=O)O)nn2Cc2ccccc2Cl)c1 [Example 65, 2-([1-[(2-Chlorophenyl)methyl]-5-(4-methoxythiophen-2-yl)-1H-pyrazol-3-yl]methoxy)-2-methylpropanoic Acid]
- IC50 (MCT4 [3]): 8 nM
- IC50 (MCT1; Table 3): 13000 nM
- Human microsome % 60 min [4]: 78%
- Mouse microsome % 60 min [5]: 92%

SMILES: COc1cccc(-c2cc(COC(C)(C)C(=O)O)nn2Cc2ccccc2N(C)C)c1 [Example 38, 2-[[1-[[2-(Dimethylamino)phenyl]methyl]-5-(3-methoxyphenyl)pyrazol-3-yl]methoxy]-2-methyl-propanoic acid]
- IC50 (MCT4 [3]): 48 nM
- IC50 (MCT1; Table 3): 60000 nM
- Human microsome % 60 min [4]: 56%
- Mouse microsome % 60 min [5]: 61%

SMILES: CC(C)(OCc1cc(-c2cccc(OC3CC3)c2)n(Cc2ccccc2Cl)n1)C(=O)O [Example 39, 2-[[1-[(2-Chlorophenyl)methyl]-5-[3-(cyclopropoxy)phenyl]pyrazol-3-yl]methoxy]-2-methyl-propanoic acid]
- IC50 (MCT4 [3]): 5.4 nM
- IC50 (MCT1; Table 3): 10000 nM
- Human microsome % 60 min [4]: 89%
- Mouse microsome % 60 min [5]: 88%

SMILES: COc1cccc(-c2c(C)c(COC(C)(C)C(=O)O)nn2Cc2ccccc2Cl)c1 [Example 54, 2-({1-[(o-Chlorophenyl)methyl]-5-(m-methoxyphenyl)-4-methyl-1H-pyrazol-3-yl}methoxy)-2-methylpropionic acid]
- IC50 (MCT4 [3]): 37 nM
- IC50 (MCT1; Table 3): 27000 nM
- Human microsome % 60 min [4]: 59%
- Mouse microsome % 60 min [5]: 95%

SMILES: CCC(C)(OCc1cc(-c2cccc(OC)c2)n(Cc2ccccc2Cl)n1)C(=O)O (stereo not shown) [Example 68, 2-([1-[(2-Chlorophenyl)methyl]-5-(3-methoxyphenyl)-1H-pyrazol-3-yl]methoxy)-2-methylbutanoic Acid]
- IC50 (MCT4 [3]): 9.1 nM
- IC50 (MCT1; Table 3): 26000 nM
- Human microsome % 60 min [4]: 95%
- Mouse microsome % 60 min [5]: 91%

Source: patent publication US10202350B2, “MCT4 inhibitors for treating disease” (Vettore, LLC, priority 2015, dated 2019)
